The text below walks through data of ChEMBL document CHEMBL1201862, “PubChem BioAssay data set” (2004).

As usually defined, the IC50 is the concentration that gives 50% inhibition.

Common to all, as to assay type: functional
Assay [1] relates to CHO-K1. Kind of assay: Counterscreen for antagonists of the orexin 1 receptor (OX1R; HCRTR1): Homogeneous time resolved fluorescence (HTRF)-based cell-based dose response assay to identify antagonists of the parental CHO-K1 cell line. [Related pubchem assays (depositor defined):AID434989, AID435008, AID463079, AID485270, AID492963, AID492964, AID492965, AID493232, AID504699, AID504701]. The settings on record: Cricetulus griseus. In general terms: Counterscreens check selectivity or assay interference.

Assay [2] in a line: Counterscreen for antagonists of the orexin 1 receptor (OX1R; HCRTR1): Fluorescence-based cell-based high throughput dose response assay to identify antagonists of the parental CHO cell line. [Related pubchem assays (depositor defined):AID434989, AID435008, AID463079, AID485270, AID492963, AID492964, AID492965, AID493232, AID504699, AID504701].
Assay [3] concerns the target T1, Orexin/Hypocretin receptor type 1 (Homo sapiens, UniProt O43613).
T1 sequence (O43613 whole entry): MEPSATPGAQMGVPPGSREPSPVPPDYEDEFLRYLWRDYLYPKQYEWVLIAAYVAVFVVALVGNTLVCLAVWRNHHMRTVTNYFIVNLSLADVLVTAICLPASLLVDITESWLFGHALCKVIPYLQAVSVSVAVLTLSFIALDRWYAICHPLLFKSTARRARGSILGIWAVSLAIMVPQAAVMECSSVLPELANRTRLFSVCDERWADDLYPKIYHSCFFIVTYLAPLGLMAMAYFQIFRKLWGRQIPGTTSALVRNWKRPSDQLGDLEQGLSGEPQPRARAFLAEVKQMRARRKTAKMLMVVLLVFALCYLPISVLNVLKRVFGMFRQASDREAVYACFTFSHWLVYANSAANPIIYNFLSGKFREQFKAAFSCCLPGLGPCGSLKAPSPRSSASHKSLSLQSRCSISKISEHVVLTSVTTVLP
Kind of assay: Homogeneous Time Resolved Fluorescence (HTRF)-based cell-based high throughput dose response assay for antagonists of the orexin 1 receptor (OX1R; HCRTR1). [Related pubchem assays (depositor defined):AID434989, AID435008, AID463079, AID485270, AID492963, AID492964, AID492965, AID493232, AID504717, AID504718].

The target in assay [4] is T1, Orexin/Hypocretin receptor type 1. Nature of the assay: Fluorescence-based cell-based high throughput dose response assay for antagonists of the orexin 1 receptor (OX1R; HCRTR1). [Related pubchem assays (depositor defined):AID434989, AID435008, AID463079, AID485270, AID492963, AID492964, AID492965, AID493232, AID504717, AID504718].
For assay [5], the target named is T2, Orexin receptor type 2 (Homo sapiens, UniProt O43614).
T2 sequence (O43614 whole entry): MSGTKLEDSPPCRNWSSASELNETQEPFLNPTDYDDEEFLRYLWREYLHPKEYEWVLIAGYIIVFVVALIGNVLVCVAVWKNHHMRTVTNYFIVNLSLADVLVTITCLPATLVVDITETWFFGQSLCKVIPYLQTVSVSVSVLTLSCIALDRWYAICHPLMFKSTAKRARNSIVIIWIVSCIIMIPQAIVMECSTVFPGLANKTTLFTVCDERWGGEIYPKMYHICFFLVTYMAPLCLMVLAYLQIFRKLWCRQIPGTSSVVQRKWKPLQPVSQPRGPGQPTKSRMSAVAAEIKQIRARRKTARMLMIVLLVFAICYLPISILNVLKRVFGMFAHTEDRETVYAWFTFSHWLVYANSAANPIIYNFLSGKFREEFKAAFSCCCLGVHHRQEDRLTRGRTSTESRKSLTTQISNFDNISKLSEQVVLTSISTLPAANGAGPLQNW
Nature of the assay: Counterscreen assay for antagonists of the orexin 1 receptor (OX1R; HCRTR1): Fluorescence-based cell-based dose response assay for antagonists of the orexin 2 receptor (OX2R; HCRTR2), run by assay provider.

Assay [6] deals with T2, Orexin receptor type 2. Nature of the assay: Counterscreen assay for antagonists of the orexin 1 receptor (OX1R; HCRTR1): Homogeneous Time Resolved Fluorescence (HTRF)-based cell-based dose response assay for antagonists of the orexin 2 receptor (OX2R; HCRTR2), run by assay provider.
The target of assay [7] is Hexokinase-1 (Homo sapiens, UniProt P19367). Nature of the assay: SAR analysis of small molecule inhibitors of hexokinase domain containing I (HKDC1) in the hexokinase 1 selectivity assay. [Related pubchem assays (depositor defined):AID493160, AID493190].
Chain of Hexokinase-1 (P19367 whole entry, the tested form may be a part): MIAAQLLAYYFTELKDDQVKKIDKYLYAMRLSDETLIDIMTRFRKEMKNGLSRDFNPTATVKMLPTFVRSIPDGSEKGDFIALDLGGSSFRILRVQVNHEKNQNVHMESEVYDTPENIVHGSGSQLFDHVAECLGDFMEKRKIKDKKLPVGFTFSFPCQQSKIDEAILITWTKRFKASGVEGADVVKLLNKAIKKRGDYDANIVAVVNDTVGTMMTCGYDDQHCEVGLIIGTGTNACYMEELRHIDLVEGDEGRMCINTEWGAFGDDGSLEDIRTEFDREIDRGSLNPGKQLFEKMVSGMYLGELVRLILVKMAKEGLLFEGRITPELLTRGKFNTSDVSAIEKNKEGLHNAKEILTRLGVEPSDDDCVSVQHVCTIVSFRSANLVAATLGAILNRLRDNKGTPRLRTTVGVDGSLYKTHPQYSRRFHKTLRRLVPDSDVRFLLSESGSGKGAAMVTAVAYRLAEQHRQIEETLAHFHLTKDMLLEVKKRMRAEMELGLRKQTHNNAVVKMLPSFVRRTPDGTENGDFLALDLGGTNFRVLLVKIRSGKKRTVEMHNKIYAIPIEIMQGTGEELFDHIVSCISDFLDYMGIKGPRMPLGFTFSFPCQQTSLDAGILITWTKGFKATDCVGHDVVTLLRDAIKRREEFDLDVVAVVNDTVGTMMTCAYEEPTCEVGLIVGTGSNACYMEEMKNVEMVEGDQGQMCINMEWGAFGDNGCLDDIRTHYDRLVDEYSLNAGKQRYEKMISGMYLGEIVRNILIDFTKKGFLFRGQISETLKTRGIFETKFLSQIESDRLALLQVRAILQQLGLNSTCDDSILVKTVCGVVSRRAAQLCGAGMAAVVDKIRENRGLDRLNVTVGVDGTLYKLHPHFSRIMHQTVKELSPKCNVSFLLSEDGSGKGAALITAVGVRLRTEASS
The target of assay [8] is T3, Hexokinase HKDC1 (Homo sapiens, UniProt Q2TB90).
T3 sequence (Q2TB90 whole entry): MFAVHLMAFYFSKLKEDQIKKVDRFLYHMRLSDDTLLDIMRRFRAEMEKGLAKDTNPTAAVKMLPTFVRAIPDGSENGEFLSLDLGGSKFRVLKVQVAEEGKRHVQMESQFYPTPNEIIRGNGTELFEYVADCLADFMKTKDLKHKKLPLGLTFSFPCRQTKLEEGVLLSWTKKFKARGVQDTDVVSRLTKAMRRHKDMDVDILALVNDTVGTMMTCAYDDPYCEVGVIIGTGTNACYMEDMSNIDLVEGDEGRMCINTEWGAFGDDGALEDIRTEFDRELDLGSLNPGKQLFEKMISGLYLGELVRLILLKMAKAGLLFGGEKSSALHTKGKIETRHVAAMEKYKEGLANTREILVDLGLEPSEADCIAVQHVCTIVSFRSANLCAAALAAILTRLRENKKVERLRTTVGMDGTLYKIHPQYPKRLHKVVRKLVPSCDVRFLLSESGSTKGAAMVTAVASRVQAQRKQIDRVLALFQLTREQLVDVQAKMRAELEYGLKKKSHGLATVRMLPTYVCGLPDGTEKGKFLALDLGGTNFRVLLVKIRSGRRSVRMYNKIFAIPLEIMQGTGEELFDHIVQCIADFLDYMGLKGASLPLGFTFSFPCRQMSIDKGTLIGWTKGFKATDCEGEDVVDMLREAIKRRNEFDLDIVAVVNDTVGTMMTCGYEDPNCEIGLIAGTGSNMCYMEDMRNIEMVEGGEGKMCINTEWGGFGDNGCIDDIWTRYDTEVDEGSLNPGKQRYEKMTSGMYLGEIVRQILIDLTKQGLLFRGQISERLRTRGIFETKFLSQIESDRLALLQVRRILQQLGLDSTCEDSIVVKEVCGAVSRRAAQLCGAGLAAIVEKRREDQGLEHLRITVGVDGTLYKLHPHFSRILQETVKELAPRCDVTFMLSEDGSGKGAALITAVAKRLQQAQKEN
Kind of assay: SAR analysis of small molecule inhibitors of hexokinase domain containing I (HKDC1). [Related pubchem assays (depositor defined):AID493160, AID493190].

In assay [9] the target is T4, Phospholipase D1 (Homo sapiens, UniProt Q13393).
T4 sequence (Q13393 whole entry): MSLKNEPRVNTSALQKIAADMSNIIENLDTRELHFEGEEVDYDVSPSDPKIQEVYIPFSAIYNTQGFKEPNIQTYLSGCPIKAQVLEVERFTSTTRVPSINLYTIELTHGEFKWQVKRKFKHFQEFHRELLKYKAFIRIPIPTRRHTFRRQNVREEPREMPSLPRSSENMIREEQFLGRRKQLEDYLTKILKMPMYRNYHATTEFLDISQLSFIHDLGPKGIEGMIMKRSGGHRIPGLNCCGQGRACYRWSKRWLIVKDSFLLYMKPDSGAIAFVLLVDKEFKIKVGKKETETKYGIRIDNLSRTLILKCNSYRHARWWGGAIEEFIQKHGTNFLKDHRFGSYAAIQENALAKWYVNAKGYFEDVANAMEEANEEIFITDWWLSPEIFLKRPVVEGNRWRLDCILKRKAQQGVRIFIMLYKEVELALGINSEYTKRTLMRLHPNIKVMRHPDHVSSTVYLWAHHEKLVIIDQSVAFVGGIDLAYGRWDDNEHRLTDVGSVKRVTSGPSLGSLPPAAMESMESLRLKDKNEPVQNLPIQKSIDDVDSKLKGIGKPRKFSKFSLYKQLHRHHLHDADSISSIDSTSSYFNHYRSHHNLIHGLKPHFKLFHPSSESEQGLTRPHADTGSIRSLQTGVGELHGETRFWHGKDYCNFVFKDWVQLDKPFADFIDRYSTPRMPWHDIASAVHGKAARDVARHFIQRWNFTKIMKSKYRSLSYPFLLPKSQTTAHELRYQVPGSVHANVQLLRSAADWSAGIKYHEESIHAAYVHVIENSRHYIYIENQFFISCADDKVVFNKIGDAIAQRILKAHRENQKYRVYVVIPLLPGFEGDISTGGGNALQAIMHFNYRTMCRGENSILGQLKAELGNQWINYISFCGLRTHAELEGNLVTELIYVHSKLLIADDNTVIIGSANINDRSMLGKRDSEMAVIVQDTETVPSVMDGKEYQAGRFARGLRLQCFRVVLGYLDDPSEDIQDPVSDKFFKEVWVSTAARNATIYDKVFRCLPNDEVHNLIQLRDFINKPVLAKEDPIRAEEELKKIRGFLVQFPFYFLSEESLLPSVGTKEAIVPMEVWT
Nature of the assay: PLD1 inhibitor potency in cells, dose response (AID 602151).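 Note: cellular PLD1 assay in Calu-1 cells stimulated with PMA.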

Assay [10] addresses Phospholipase D2 (Homo sapiens, UniProt O14939). Kind of assay: PLD2 inhibitor potency in cells, dose response (AID 602147).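 Note: cellular assay in HEK293 cells overexpressing GFP-tagged PLD2.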
Assay [11] has as its target Beta-2 adrenergic receptor (Homo sapiens, UniProt P07550). Kind of assay: beta2AR agonists driving receptor internalization, dose response, cell-based, FAP fluorogen, flow cytometry, cherry pick 1 (AID 588763). In general terms: A flow cytometer gives signals particle by particle.
Assay [12] deals with T5, Apoptotic protease-activating factor 1 (Homo sapiens, UniProt O14727).
T5 sequence (O14727 whole entry): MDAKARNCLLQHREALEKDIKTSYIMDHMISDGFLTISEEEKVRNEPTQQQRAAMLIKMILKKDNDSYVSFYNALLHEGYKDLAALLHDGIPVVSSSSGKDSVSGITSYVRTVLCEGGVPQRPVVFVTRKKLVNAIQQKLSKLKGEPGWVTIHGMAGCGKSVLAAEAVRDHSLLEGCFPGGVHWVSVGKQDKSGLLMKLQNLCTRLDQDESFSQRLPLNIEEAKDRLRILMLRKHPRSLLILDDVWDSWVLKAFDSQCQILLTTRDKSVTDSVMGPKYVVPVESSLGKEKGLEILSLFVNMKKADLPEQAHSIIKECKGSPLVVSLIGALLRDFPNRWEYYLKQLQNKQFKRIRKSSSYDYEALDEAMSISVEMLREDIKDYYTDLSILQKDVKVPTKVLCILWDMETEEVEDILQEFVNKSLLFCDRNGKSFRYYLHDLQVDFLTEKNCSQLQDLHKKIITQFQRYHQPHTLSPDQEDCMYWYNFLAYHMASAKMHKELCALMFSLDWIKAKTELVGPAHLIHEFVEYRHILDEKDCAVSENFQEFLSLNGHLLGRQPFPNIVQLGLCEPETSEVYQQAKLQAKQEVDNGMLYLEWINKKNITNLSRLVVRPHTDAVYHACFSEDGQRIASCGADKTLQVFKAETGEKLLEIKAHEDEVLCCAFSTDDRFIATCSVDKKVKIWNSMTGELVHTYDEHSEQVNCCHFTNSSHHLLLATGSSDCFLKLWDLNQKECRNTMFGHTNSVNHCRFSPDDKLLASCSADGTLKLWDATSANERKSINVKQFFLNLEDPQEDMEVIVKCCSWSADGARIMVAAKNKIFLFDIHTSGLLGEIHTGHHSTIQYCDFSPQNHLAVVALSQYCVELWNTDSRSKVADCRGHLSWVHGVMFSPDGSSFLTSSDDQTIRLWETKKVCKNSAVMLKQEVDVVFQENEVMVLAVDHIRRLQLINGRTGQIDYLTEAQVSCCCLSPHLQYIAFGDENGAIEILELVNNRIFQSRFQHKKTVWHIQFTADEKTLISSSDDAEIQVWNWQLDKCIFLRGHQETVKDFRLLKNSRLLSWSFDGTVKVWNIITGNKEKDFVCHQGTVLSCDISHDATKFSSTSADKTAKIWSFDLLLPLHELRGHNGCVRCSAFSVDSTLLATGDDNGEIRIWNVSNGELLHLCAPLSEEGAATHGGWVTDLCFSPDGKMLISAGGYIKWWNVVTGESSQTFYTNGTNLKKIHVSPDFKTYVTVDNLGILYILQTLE
Kind of assay: SAR analysis of small molecule Activators of Apaf-1 in a Fluorescent assay. The settings on record: read-out: EC50_Mean.

Calls of active or inactive are those of the source. A value given as a limit tells only on which side of the number the result lay.
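Throughout, for EC50 Mean: caspase-3 cleavage of fluorogenic Rh110 DEVD substrate downstream of apoptosome activation.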

Chain of Phospholipase D2 (O14939 whole entry): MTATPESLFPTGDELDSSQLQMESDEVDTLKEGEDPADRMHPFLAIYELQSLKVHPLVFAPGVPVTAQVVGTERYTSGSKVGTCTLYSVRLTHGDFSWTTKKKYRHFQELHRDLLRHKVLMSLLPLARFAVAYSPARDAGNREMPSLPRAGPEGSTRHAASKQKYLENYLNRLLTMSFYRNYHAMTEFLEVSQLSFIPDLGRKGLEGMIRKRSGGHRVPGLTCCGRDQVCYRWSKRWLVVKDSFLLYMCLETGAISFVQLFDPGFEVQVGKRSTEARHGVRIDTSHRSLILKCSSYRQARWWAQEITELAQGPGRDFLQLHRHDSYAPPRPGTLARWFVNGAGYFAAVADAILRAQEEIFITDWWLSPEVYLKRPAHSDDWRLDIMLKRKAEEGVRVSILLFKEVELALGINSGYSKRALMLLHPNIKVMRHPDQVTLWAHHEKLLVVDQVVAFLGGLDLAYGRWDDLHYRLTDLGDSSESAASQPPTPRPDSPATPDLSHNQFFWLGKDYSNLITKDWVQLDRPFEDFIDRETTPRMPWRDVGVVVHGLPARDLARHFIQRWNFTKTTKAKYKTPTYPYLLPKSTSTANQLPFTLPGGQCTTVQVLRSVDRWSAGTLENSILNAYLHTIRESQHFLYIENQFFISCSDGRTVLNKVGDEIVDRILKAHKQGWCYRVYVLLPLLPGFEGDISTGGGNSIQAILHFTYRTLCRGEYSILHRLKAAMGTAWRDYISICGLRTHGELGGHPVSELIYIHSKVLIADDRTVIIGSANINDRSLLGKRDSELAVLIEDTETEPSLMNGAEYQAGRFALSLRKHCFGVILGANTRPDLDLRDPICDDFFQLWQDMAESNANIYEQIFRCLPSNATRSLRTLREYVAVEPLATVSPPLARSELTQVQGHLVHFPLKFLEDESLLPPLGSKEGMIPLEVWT
Chain of Beta-2 adrenergic receptor (P07550 whole entry): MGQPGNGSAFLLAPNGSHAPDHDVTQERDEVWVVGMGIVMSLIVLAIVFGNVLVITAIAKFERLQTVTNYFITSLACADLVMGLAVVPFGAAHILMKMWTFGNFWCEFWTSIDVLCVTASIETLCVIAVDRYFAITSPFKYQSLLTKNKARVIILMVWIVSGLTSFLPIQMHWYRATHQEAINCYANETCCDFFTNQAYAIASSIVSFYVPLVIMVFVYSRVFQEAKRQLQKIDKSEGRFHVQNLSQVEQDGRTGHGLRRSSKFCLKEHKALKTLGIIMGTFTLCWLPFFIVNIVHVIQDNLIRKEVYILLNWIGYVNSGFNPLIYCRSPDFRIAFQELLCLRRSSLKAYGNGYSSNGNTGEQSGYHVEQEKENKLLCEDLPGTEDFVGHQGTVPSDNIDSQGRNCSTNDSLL

On to `O=C(c1ccc(S(=O)(=O)Nc2ccc(F)cc2)cc1)N1CCN(c2ccccn2)CC1`, for which the IC50 in [1] was > 66.2 µM (inactive); in [2], 14.7 µM (inactive); in assay [3], 4.45 µM (active); in assay [4], 7.1 µM (active); in assay [5], 15.6 µM (inactive); in assay [6], > 50 µM (inactive).
On to `O=S(=O)(Nc1cccc2ccccc12)c1ccc(Cl)cc1`, for which the IC50 in assay [7] and in assay [8] was > 80 µM (inactive) throughout.
Regarding `O=C(NCCN1CCC(n2c(=O)[nH]c3ccc(F)cc32)CC1)c1cccc2c1C(=O)c1ccccc1-2`, the results for the half-maximal inhibitory concentration (IC50) in assay [9] and in [10] were 0.007 µM (active) and 0.17 µM (active), respectively.
For `C[C@H](CN1CCC2(CC1)C(=O)NCN2c1ccccc1)NC(=O)c1cc(Br)c(Br)o1`, the IC50 was 0.33 µM (active) in assay [9] and 2.3 µM (active) in assay [10].
For `O=C(Nc1cccc(S(=O)(=O)NCc2ccco2)c1)c1cc(-c2ccccc2)nc2ccccc12`, the IC50 in assay [1] was > 66.2 µM (inactive); in assay [2], > 49.7 µM (inactive); in assay [3], 2.98 µM (active); in assay [4] it was > 5.53 µM (active); in [5] it was 16.9 µM (inactive); in assay [6] it was > 50 µM (inactive).
Turning to `CC(=O)c1ccc(OCc2cc(C(=O)N(C)CCOc3ccc(C)cc3)no2)cc1`, the EC50 in assay [11] was 1.91 µM (active).
For `COC(=O)c1coc(-c2ccc(F)cc2)n1`, the EC50 in assay [12] was > 100 µM (inactive).
Turning to `COc1ccc(CNc2cc3n(c(=O)n2)CCc2cc(OC)c(OC)cc2-3)cc1`, the IC50 in [7] and in [8] was > 80 µM (inactive) in each case.
